Consider 7 molecules from patent US20160214956A1, “NOVEL SOLUBLE GUANYLATE CYCLASE ACTIVATORS AND THEIR USE” (GLAXOSMITHKLINE INTELLECTUAL PROPERTY DEVELOPMENT LIMITED, priority 2013, published 2016).

The test addresses T1, human sGC (Homo sapiens, UniProt Q02153).
T1 sequence (Q02153 1-619): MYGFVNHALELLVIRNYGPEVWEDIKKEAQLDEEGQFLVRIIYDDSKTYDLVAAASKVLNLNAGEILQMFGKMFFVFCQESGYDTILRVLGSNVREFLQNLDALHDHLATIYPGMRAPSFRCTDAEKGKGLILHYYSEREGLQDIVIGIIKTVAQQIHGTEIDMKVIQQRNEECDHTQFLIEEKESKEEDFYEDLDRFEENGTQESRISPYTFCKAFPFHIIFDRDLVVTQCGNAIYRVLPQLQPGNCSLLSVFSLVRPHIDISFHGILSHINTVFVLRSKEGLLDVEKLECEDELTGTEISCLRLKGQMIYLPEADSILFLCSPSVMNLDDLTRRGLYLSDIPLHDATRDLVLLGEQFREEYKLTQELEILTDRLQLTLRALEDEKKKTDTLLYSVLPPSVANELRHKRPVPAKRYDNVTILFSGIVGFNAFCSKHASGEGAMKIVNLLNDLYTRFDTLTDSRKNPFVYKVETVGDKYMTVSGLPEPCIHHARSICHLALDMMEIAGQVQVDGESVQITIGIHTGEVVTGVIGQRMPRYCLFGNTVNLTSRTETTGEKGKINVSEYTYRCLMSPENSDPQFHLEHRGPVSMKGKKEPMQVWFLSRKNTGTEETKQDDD
T1 sequence (Q02108 1-690 partner): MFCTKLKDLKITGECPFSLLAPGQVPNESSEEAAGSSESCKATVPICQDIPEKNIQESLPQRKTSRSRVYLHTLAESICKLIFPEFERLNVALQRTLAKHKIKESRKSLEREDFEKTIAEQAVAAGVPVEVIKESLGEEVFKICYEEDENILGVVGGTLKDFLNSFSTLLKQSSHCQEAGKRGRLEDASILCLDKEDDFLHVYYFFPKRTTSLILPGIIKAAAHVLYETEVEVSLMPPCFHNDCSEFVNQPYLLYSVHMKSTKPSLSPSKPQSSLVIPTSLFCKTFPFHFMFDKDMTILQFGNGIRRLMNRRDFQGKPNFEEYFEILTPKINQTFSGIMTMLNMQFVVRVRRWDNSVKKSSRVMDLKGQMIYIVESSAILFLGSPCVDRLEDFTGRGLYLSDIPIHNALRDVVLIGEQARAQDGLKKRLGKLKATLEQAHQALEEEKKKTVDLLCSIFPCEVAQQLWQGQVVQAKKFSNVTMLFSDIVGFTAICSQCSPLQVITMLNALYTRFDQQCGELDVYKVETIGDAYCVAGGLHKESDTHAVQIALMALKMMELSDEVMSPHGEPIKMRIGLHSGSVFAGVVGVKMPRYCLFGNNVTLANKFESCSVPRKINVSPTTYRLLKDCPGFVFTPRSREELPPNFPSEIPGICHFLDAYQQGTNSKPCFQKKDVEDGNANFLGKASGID
The experiment in a line: sGC enzyme assay, fluorescence polarisation of labelled cGMP. The test is classed as biochemical. The conditions noted are these: human sGC 1 nM, FP assay; concentration able to increase by 5-fold basal cGMP. The procedure:
The activity of soluble guanylate cyclase (sGC) was tested in an assay based on measuring the fluorescent polarisation (FP) signal of fluorescently labelled cGMP. FP increased on interaction with an anti-cGMP antibody as the motility of the molecule was reduced. Newly produced cGMP displaced the interaction giving rise to a decrease in polarisation and FP signal which was equated to enzyme activity. Compounds were incubated with human sGC, anti-cGMP antibody, the GTP substrate and fluorescently labelled cGMP. After a period of one hour the assay was stopped with the addition of EDTA and after a further hour the assay was read.
Human sGC was thawed and resuspended in assay buffer (100 mM TRIS, 10 mM MgCl2, 0.2 mM Tween 20, pH7.4, containing 1:100 dilution of sheep anti-cGMP) to give final concentration of 1 nM in the well. A substrate solution was prepared containing GTP and 8-fluo-cGMP in de-ionized water to a final concentration of 25 μM and 50 nM respectively. Assay plates containing 5 μL of various test compounds and of a standard agonist (50 μM-50 nM) in 1% DMSO as 6 point, four fold dilutions across a 96 well plate were used in the assay. The plate also contained 6 wells of DMSO (1%) to produce high control and a cGMP standard curve (14 nM to 10 μM) to convert FP data to cGMP concentration. 25 μL of enzyme mix and 20 μl of substrate mix described above were added to each well of the plate. Samples were mixed on an orbital shaker and then incubated at room temperature for 1 hour. After this incubation period 5 μl of 0.5M EDTA was added to all wells and the plates were incubated for a further hour at room temperature prior to reading the FP signal in an appropriate reader. For data handling FP data were converted to cGMP concentrations and then fitted using ActivityBase software. The activity of a test compound was determined as the pEC500 value which is the concentration able to increase by 5-fold basal cGMP.
For `Cc1cc(OCCCC(F)(F)F)ccc1CCc1ccccc1-c1cccc(-n2ncc(C(=O)O)c2C(F)(F)F)n1` [Example 1, 1-(6-(2-(2-methyl-4-(4,4,4-trifluorobutoxy)phenethyl)phenyl)pyridin-2-yl)-5-(trifluoromethyl)-1H-pyrazole-4-carboxylic acid], the “sGC pEC500” value is reported as 6.95.

Regarding `Cc1cc(OCCCn2ccc(C(F)(F)F)n2)ccc1CCc1ccccc1-c1cccc(-n2ncc(C(=O)O)c2C(F)(F)F)n1` [Example 3, 1-(6-(2-(2-methyl-4-(3-(3-(trifluoromethyl)-1H-pyrazol-1-yl)propoxy)phenethyl)phenyl)pyridin-2-yl)-5-(trifluoromethyl)-1H-pyrazole-4-carboxylic acid], the “sGC pEC500” value was found to be 7.88.

For the molecule `O=C(O)c1cnn(-c2cccc(-c3ccccc3OCc3ccc(OCCCC(F)(F)F)cc3F)n2)c1C(F)(F)F` [Example 5, 1-(6-(2-((2-fluoro-4-(4,4,4-trifluorobutoxy)benzyl)oxy)phenyl)pyridin-2-yl)-5-(trifluoromethyl)-1H-pyrazole-4-carboxylic acid], the “sGC pEC500” value stood at 6.88.

Consider `COCCCOc1ccc(COc2ccccc2-c2cccc(-n3ncc(C(=O)O)c3C(F)(F)F)n2)c(F)c1` [Example 6, 1-(6-(2-((2-fluoro-4-(3-methoxypropoxy)benzyl)oxy)phenyl)pyridin-2-yl)-5-(trifluoromethyl)-1H-pyrazole-4-carboxylic acid], for which the “sGC pEC500” value came out at 7.4.

Consider `Cc1cc(OCCCC#N)ccc1COc1ccccc1-c1cccc(-n2ncc(C(=O)O)c2C(F)(F)F)n1` [Example 9, 1-(6-(2-((4-(3-cyanopropoxy)-2-methylbenzyl)oxy)phenyl)pyridin-2-yl)-5-(trifluoromethyl)-1H-pyrazole-4-carboxylic acid], for which the “sGC pEC500” value stood at 7.73.

Consider `COCCCOc1ccc(COc2ccccc2-c2cccc(-n3ncc(C(=O)O)c3C(F)(F)F)n2)c(C)c1` [Example 10, 1-(6-(2-((4-(3-methoxypropoxy)-2-methylbenzyl)oxy)phenyl)pyridin-2-yl)-5-(trifluoromethyl)-1H-pyrazole-4-carboxylic acid], for which the “sGC pEC500” value stood at 7.79.

Regarding `Cc1cc(OCCCC(F)(F)F)ccc1COc1ccccc1-c1cccc(-n2ncc(C(=O)O)c2C(F)(F)F)n1` [Example 11, 1-(6-(2-((2-methyl-4-(4,4,4-trifluorobutoxy)benzyl)oxy)phenyl)pyridin-2-yl)-5-(trifluoromethyl)-1H-pyrazole-4-carboxylic acid], the “sGC pEC500” value was found to be 7.47.
